Like-named read-outs stand apart in the source and are kept apart here.

Here are results for 31 molecules from patent publication US10323000B2, “Indole derivatives and their use in neurodegenerative diseases” (priority 2014, dated 2019).

The target in experiment [1] is P2X7 (IL-1β release from THP-1 cells) (Homo sapiens (Human), UniProt Q99572). In words: IL-1β release assay. Format: cell-based. A digest of the protocol: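 THP-1 cells were differentiated with PMA 0.5 μM and primed 4 h with LPS 10 ng/ml. They were then pre-incubated 20 min with compound at 37° C and stimulated 30 min with BzATP 0.8 mM. Mature IL-1β released into the supernatant was quantified by sandwich ELISA.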
P2X7 (IL-1β release from THP-1 cells), sequence (Q99572 whole entry): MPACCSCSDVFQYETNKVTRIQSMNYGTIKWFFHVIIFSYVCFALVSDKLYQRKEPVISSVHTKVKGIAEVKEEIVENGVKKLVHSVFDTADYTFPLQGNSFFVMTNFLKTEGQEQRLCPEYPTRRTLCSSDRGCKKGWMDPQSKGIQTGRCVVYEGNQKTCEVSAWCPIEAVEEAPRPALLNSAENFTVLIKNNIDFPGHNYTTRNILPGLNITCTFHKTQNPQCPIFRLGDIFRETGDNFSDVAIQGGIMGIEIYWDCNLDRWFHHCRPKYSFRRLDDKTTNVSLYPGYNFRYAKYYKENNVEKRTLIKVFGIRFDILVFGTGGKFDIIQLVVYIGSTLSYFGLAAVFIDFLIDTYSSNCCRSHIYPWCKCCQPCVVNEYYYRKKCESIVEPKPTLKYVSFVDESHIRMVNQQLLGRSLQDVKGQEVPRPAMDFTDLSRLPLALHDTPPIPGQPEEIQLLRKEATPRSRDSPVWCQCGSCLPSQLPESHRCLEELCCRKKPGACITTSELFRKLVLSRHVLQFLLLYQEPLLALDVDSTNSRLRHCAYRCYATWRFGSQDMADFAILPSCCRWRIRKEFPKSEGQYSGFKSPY

A further experiment concerns the target human P2X7 receptor (Homo sapiens (Human), UniProt Q99572). The experiment is described as follows: Pore permeation assay (YO PRO dye uptake). Format: cell-based.
The mark [2] stands for this setting: THP-1 cells, LPS primed, 0.8 mM BzATP, mature IL-1β by sandwich ELISA, read-out: hTHP-1/IL-ib IC50.
The mark [3] stands for this setting: HEK293 transfected with human P2X7, BzATP 10 uM, YO PRO dye uptake, read-out: hP2X7 IC50.

human P2X7 receptor, sequence (Q99572 whole entry): as above

As for `O=C(NCC1CCCC(F)(F)C1)c1cn(C2COC2)c2cccc(Cl)c12` (racemic) [Compound 69, 4-chloro-N-((3,3-difluorocyclohexyl)methyl)-1-(oxetan-3-yl)-1H-indole-3-carboxamide], the IC50 is 101 to 500 nM in experiment [1] and 10 to 100 nM against human P2X7 receptor.

For the molecule `COCCn1cc(C(=O)NCCc2ccc(Cl)cc2Cl)c2c(Cl)cccc21` [Compound 36], the IC50 in experiment [1] (setting [2]) is more than 1000 nM; against human P2X7 receptor, 101 to 500 nM.

`O=C(NCC1CCC(F)(F)CC1)c1cn(CCO)c2cccc(C(F)(F)F)c12` [Compound 198, N-((4,4-difluorocyclohexyl)methyl)-1-(2-hydroxyethyl)-4-(trifluoromethyl)-1H-indole-3-carboxamide]: the figures for the IC50 (in experiment [1]; at human P2X7 receptor) were 10 to 100 nM and 101 to 500 nM, respectively.

In the case of `COCCn1cc(C(=O)NCC2(c3ccccc3)CCCCC2)c2c(Cl)cccc21` [Compound 39, 4-chloro-1-(2-methoxyethyl)-N-((1-phenylcyclohexyl)methyl)-1H-indole-3-carboxamide], the IC50 is 101 to 500 nM in experiment [1] and 10 to 100 nM on human P2X7 receptor.

Take `O=C(NCC1CCC(F)(F)CC1)c1cn(CCC(F)(F)F)c2cccc(Cl)c12` [Compound 13, 4-chloro-N-((4,4-difluorocyclohexyl)methyl)-1-(3,3,3-trifluoropropyl)-1H-indole-3-carboxamide]: the IC50 (in experiment [1]; at human P2X7 receptor) was 10 to 100 nM throughout.

With `O=C(NCC1CCCCC1)c1cn(C2CCOC2)c2cccc(Cl)c12` (centres unmarked) [Compound 101, 4-chloro-N-(cyclohexylmethyl)-1-(tetrahydrofuran-3-yl)-1H-indole-3-carboxamide], the IC50 in experiment [1] is 500 to 999 nM; against human P2X7 receptor, 101 to 500 nM.

Consider `O=C(NCC1CCC(F)(F)CC1)c1cn(CC2CCNCC2)c2cccc(Cl)c12` [Compound 175, 4-chloro-N-((4,4-difluorocyclohexyl)methyl)-1-(piperidin-4-ylmethyl)-1H-indole-3-carboxamide], for which the IC50 (in experiment [1]; against human P2X7 receptor) was 101 to 500 nM in each case.

As to `O=C(NCC1CCC(F)(F)CC1)c1cn(CC2CCNC2)c2cccc(Cl)c12` (centres unmarked) [Compound 160], the IC50 (in experiment [1]; against human P2X7 receptor) was 101 to 500 nM throughout.

On to `O=C(NCC1(O)CCCC(F)(F)C1)c1cn(CC2CCN2)c2cccc(Cl)c12` (centres unmarked) [Compound 124, 1-(azetidin-2-ylmethyl)-4-chloro-N-((3,3-difluoro-1-hydroxycyclohexyl)methyl)-1H-indole-3-carboxamide], for which the IC50 (in experiment [1]; on human P2X7 receptor) was 10 to 100 nM throughout.

Take `COCCn1cc(C(=O)NC(CO)c2cccc(C(F)(F)F)c2Cl)c2c(Cl)cccc21` (centres unmarked) [Compound 32, 4-chloro-N-(1-(2-chloro-3-(trifluoromethyl)phenyl)-2-hydroxyethyl)-1-(2-methoxyethyl)-1H-indole-3-carboxamide]: the IC50 in experiment [1] (setting [2]) was in the range of 500 to 999 nM; at human P2X7 receptor (setting [3]), 101 to 500 nM.

In the case of `O=C1CC[C@H](Cn2cc(C(=O)NCC3CCC(F)(F)CC3)c3c(Cl)cccc32)N1` [Compound 162, (R)-4-chloro-N-((4,4-difluorocyclohexyl)methyl)-1-((5-oxopyrrolidin-2-yl)methyl)-1H-indole-3-carboxamide], the IC50 (in experiment [1]; against human P2X7 receptor) was 10 to 100 nM throughout.

Consider `O=C(NCC1(O)CCC(F)(F)CC1)c1cn(C[C@H]2CCCO2)c2cccc(Cl)c12` [Compound 131, (R)-4-chloro-N-((4,4-difluoro-1-hydroxycyclohexyl)methyl)-1-((tetrahydrofuran-2-yl)methyl)-1H-indole-3-carboxamide], for which the IC50 (in experiment [1]; against human P2X7 receptor) was 10 to 100 nM each time.

For the molecule `O=C(NCC[C@@H]1C[C@@H]2C=C[C@H]1C2)c1cn(C2COC2)c2cccc(Cl)c12` [Compound 75, 4-Chloro-1-oxetan-3-yl-1H-indole-3-carboxylic acid ((1S,2S,4S)-2-bicyclo[2.2.1]hept-5-en-2-yl-ethyl)-amide], the IC50 in experiment [1] is 10 to 100 nM; at human P2X7 receptor (setting [3]), less than 10 nM.

Regarding `O=C(NCC1(O)CCC(F)(F)CC1)c1cn(CC2CCOC2)c2cccc(Cl)c12` (centres unmarked) [Compound 147, 4-chloro-N-((4,4-difluoro-1-hydroxycyclohexyl)methyl)-1-((tetrahydrofuran-3-yl)methyl)-1H-indole-3-carboxamide], the IC50 (in experiment [1]; on human P2X7 receptor) was 10 to 100 nM throughout.

For the molecule `O=C(NC[C@@]1(O)CCCC(F)(F)C1)c1cn(CCN2CCCC2=O)c2cccc(Cl)c12` [Compound 186, (R)-4-chloro-N-((3,3-difluoro-1-hydroxycyclohexyl)methyl)-1-(2-(2-oxopyrrolidin-1-yl)ethyl)-1H-indole-3-carboxamide], the IC50 (in experiment [1] (setting [2]); at human P2X7 receptor (setting [3])) was more than 1000 nM in each case.

Regarding `O=C(NCC(c1ccccc1)C1CCCC1)c1cn(C2COC2)c2cccc(Cl)c12` (centres unmarked) [Compound 70, 4-Chloro-1-oxetan-3-yl-1H-indole-3-carboxylic acid (2-cyclopentyl-2-phenyl-ethyl)-amide], the results for the IC50 (in experiment [1]; at human P2X7 receptor) were 101 to 500 nM and 10 to 100 nM, respectively.

Regarding `O=C(NCC1(O)CCC(F)(F)CC1)c1cn(CC2CCCO2)c2cccc(Cl)c12` (centres unmarked) [Compound 142, 4-chloro-N-((4,4-difluoro-1-hydroxycyclohexyl)methyl)-1-((tetrahydrofuran-2-yl)methyl)-1H-indole-3-carboxamide], the IC50 in experiment [1] fell in the range of 101 to 500 nM; on human P2X7 receptor, 10 to 100 nM.

In the case of `O=C(NC[C@]1(O)CCCC(F)(F)C1)c1cn(CCN2CCCC2=O)c2cccc(Cl)c12` [Compound 187, (S)-4-chloro-N-((3,3-difluoro-1-hydroxycyclohexyl)methyl)-1-(2-(2-oxopyrrolidin-1-yl)ethyl)-1H-indole-3-carboxamide], the IC50 in experiment [1] lay in the range of 101 to 500 nM; at human P2X7 receptor it was 10 to 100 nM.

Take `CN(C)C(=O)Cn1cc(C(=O)NCC2CCC(F)(F)CC2)c2c(Cl)cccc21` [Compound 208, 4-Chloro-1-dimethylcarbamoylmethyl-1H-indole-3-carboxylic acid (4,4-difluoro-cyclohexylmethyl)-amide]: the IC50 in experiment [1] is 10 to 100 nM; at human P2X7 receptor (setting [3]), less than 10 nM.

Regarding `O=C(NCC1(O)CCCCC1)c1cn(C2COC2)c2cccc(Cl)c12` [Compound 58, 4-Chloro-1-oxetan-3-yl-1H-indole-3-carboxylic acid (1-hydroxy-cyclohexylmethyl)-amide], the IC50 in experiment [1] is 101 to 500 nM; at human P2X7 receptor, 10 to 100 nM.

With `O=C(NCC1CCC(F)(F)CC1)c1cn(C2CN(C3CC3)C2)c2cccc(Cl)c12` [Compound 171, 4-chloro-1-(1-cyclopropylazetidin-3-yl)-N-((4,4-difluorocyclohexyl)methyl)-1H-indole-3-carboxamide], the IC50 in experiment [1] lay within 500 to 999 nM; on human P2X7 receptor, 101 to 500 nM.

On to `COCCn1cc(C(=O)NCCc2ccccc2Cl)c2c(Cl)cccc21` [Compound 35, 4-Chloro-1-(2-methoxy-ethyl)-1H-indole-3-carboxylic acid [2-(2-chloro-phenyl)-ethyl]-amide], for which the IC50 (in experiment [1]; against human P2X7 receptor) was 101 to 500 nM throughout.

In the case of `O=C(NCCOC1CCCC1)c1cn(C2COC2)c2cccc(Cl)c12` [Compound 72, 4-Chloro-1-oxetan-3-yl-1H-indole-3-carboxylic acid (2-cyclopentyloxy-ethyl)-amide], the IC50 was more than 1000 nM in experiment [1] (setting [2]) and 500 to 999 nM at human P2X7 receptor.

On to `O=C(NC[C@H]1CCCC(F)(F)C1)c1cn(C2COC2)c2cccc(Cl)c12` [Compound 67, 4-chloro-N—(((S)-3,3-difluorocyclohexyl)methyl)-1-(oxetan-3-yl)-1H-indole-3-carboxamide], for which the IC50 (in experiment [1]; on human P2X7 receptor) was 10 to 100 nM in each case.

With `O=C(NCC1(O)CCC(F)(F)CC1)c1cn(CCC(F)F)c2cccc(Cl)c12` [Compound 10, 4-Chloro-1-(3,3-difluoro-propyl)-1H-indole-3-carboxylic acid (4,4-difluoro-1-hydroxy-cyclohexylmethyl)-amide], the IC50 in experiment [1] was 101 to 500 nM; on human P2X7 receptor, 10 to 100 nM.

As to `O=C(NCC1(O)CCCC(F)(F)C1)c1cn(C2CCNC2)c2cccc(Cl)c12` (centres unmarked) [Compound 120, 4-chloro-N-((3,3-difluoro-1-hydroxycyclohexyl)methyl)-1-(pyrrolidin-3-yl)-1H-indole-3-carboxamide], the IC50 (in experiment [1]; against human P2X7 receptor) was 10 to 100 nM each time.

`O=C(NCC1CCC(F)(F)CC1)c1cn(CCOC(F)F)c2cccc(Cl)c12` [Compound 95, 4-chloro-N-((4,4-difluorocyclohexyl)methyl)-1-(2-(difluoromethoxy)ethyl)-1H-indole-3-carboxamide]: the IC50 fell in the range of 101 to 500 nM in experiment [1] and 10 to 100 nM against human P2X7 receptor.

With `O=C(NCC1(O)CCCC(F)(F)C1)c1cn(CC2CCCN2)c2cccc(Cl)c12` (centres unmarked) [Compound 155, 4-chloro-N-((3,3-difluoro-1-hydroxycyclohexyl)methyl)-1-(pyrrolidin-2-ylmethyl)-1H-indole-3-carboxamide], the results for the IC50 (in experiment [1] (setting [2]); against human P2X7 receptor) were less than 10 nM and 10 to 100 nM, respectively.

Turning to `O=C(NCC1CCC(F)(F)CC1)c1cn(C[C@@H]2CCCN2)c2cccc(Cl)c12` [Compound 153, (S)-4-chloro-N-((4,4-difluorocyclohexyl)methyl)-1-(pyrrolidin-2-ylmethyl)-1H-indole-3-carboxamide], the results for the IC50 (in experiment [1]; at human P2X7 receptor (setting [3])) were 10 to 100 nM and less than 10 nM, respectively.

`C[C@@H]1CCC[C@](O)(CNC(=O)c2cn(C3CCOC3)c3cccc(Cl)c23)C1` (stereo partly drawn) [Compound 113, 4-chloro-N-(((1R,3R)-1-hydroxy-3-methylcyclohexyl)methyl)-1-(tetrahydrofuran-3-yl)-1H-indole-3-carboxamide]: the IC50 (in experiment [1]; against human P2X7 receptor) was 10 to 100 nM throughout.

Take `CC(C)N1CC[C@H]1Cn1cc(C(=O)NCC2CCC(F)(F)CC2)c2c(Cl)cccc21` [Compound 191, (S)-4-chloro-N-((4,4-difluorocyclohexyl)methyl)-1-((1-isopropylazetidin-2-yl)methyl)-1H-indole-3-carboxamide]: the IC50 in experiment [1] (setting [2]) is more than 1000 nM; against human P2X7 receptor it was 101 to 500 nM.
